Test results from patent US7781428B2 (Pfizer Inc., priority 2006, dated 2010).

biological target: T1, mineralocorticoid receptor (MR) (Homo sapiens, UniProt P08235); assay: Cell-based Gal4 response element-controlled luciferase reporter assay (MR antagonism); details: Huh7 human liver cells transfected with Gal4 DBD-MR LBD fusion and luciferase reporter; block of agonist-induced activation; overnight incubation
T1 construct: expressed in transfected cells; host or cells: Huh7 (human liver cells)
T1 sequence (P08235 726-964 limits assumed): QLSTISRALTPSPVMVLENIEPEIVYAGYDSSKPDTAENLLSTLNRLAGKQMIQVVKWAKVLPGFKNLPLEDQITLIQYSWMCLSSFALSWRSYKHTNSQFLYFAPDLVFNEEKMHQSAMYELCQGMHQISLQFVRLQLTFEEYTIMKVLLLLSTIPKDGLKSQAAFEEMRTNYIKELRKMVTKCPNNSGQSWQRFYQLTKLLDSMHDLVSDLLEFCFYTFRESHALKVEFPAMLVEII
From the text: Method 1: Cell-based Gal4 Response Element-controlled Luciferase Reporter Assay
An in vitro assay can be used to evaluate mineralocorticoid receptor (MR) antagonism by a test compound. […] An agonist of the receptor can bind to and activate the receptor LBD, which activate the expression of the Gal4 response element containing luciferase reporter gene. Antagonists can compete for binding to the receptor LBDs and decrease the transcription activity of the reporter gene. Measurement of luciferase activity allows quantitative determinations of the reporter transcription in the presence of either agonists or agonists and antagonists in combination. β-galactosidase activity, which is unaffected by ligand, is used to normalize the transfection efficiency in the cell population.
Huh7 cells were plated in RPMI1640+10% fetal bovine serum (Invitrogen Corporation, San Diego, Calif.), at 10,000 cells per well in 96-well tissue culture dishes for approximately 24 hours. Cells were then transfected using FuGENE™ 6 Transfection Reagent according to manufacturers' instructions (Roche Molecular Biochemicals, Indianapolis, Ind.). Approximately 20 hours after transfection, media were removed. Cells were washed once with PBS and treated (n=6/group) with agonist for each receptor (all chemicals from Sigma, St. Louis, Mo.), and with compounds. Agonist concentrations represent 70-80% of full activation of each receptor.
Compounds were dissolved in DMSO at 10 mM and diluted to final concentrations in phenol red-free media that contained 10% charcoal- and dextran-stripped serum (Life Technologies, Gathersburg, Md.). Following overnight incubation (18-20 hours) with compounds, the medium was removed and replaced with 100 μL per well of PBS and 100 μL of Steady-Glo™ lysis buffer with luciferase substrate (Promega Corporation, Madison, Wis.). After a 30-minute incubation to completely lyse the cells, 100 μL of the lysate was transferred to a black, Dynatech Microfluor assay plates (Dynex Corporation, Chantilly, Va.) to measure luciferase activity. The plate was sealed with TopSeal self-adhesive film, dark-adapted for 5 minutes, then counted in a TopCount Plate Reader (Packard Instrument Company, Meriden, Conn.) in single photon counting mode. The remaining lysate was used for determination of β-galactosidase activity. In a clear 96-well assay plate, 100 μL of cell lysate was added to 100 μL β-galactosidase assay buffer per well. The assay buffer consisted of 60 mM Na2HPO4, 40 mM NaH2PO4, 10 mM KCl, 1 mM MgSO4, 50 mM β-mercaptoethanol, and 2.5 mg/mL ONPG, the latter two reagents were added just prior to assay (all chemicals from Sigma). The reaction was allowed to proceed until a distinct yellow color developed. Reactions were stopped by the addition of 100 μL per well 1 M Na2CO3 and plates were read at 420 nm in Victor-2 (Perkin Elmer Life Sciences, Boston, Mass.). Values (relative luciferase activity) for each sample were expressed as a ratio of luciferase activity to OD420β-galactosidase activity measured in arbitrary units for each well. […] “b” is the slope, “c” is the IC50 or EC50. “x” is the concentration of the compound and “y” the activity at that concentration.

Structure (SMILES)	IC50
N#Cc1ccc(N2N=C3c4ccc(O)cc4CCC3C2c2ccc(F)cc2)cc1 (racemic) [Example 89, (±)-4-((3RS,3aRS)-3-(4-fluorophenyl)-7-hydroxy-3,3a,4,5-tetrahydrobenzo[g]indazol-2-yl)benzonitrile]	0.705 µM
Cc1cc(N2N=C3c4ccc(C(=O)O)cc4OC[C@@H]3[C@@H]2C2=CCCC2)ccc1C#N (racemic) [Example 77, (±)-(3RS,3aRS)-2-(4-cyano-3-methylphenyl)-3-cyclopentenyl-2,3,3a,4-tetrahydrochromeno[4,3-c]pyrazole-7-carboxylic acid]	0.013 µM
N#Cc1ccc(N2N=C3c4ccc(C(=O)O)cc4CCC3C2c2ccoc2)cc1Cl (racemic) [Example 46, 2-(3-chloro-4-cyanophenyl)-3-(3-furyl)-3,3a,4,5-tetrahydro-2H-benzo[g]indazole-7-carboxylic acid]	0.069 µM
N#Cc1ccc(N2N=C3c4ccc(C(=O)O)cc4OCC3C2c2ccc(F)cc2)cc1Cl (racemic) [Example 55, 2-(3-chloro-4-cyanophenyl)-3-(4-fluorophenyl)-2,3,3a,4-tetrahydrochromeno[4,3-c]pyrazole-7-carboxylic acid]	0.849 µM
N#Cc1ccc(N2N=C3c4ccc(C(=O)O)cc4OC[C@@H]3[C@@H]2C2CCCC2)cc1Cl [Example 65, (3S,3aR)-2-(3-chloro-4-cyanophenyl)-3-cyclopentyl-2,3,3a,4-tetrahydrochromeno[4,3-c]pyrazole-7-carboxylic acid]	0.038 µM
Cc1cc(N2N=C3c4ccc(C(=O)O)cc4OCC3C2C(C)C)ccc1C#N (stereo not shown) [Example 73, 2-(4-cyano-3-methylphenyl)-3-isopropyl-2,3,3a,4-tetrahydrochromeno[4,3-c]pyrazole-7-carboxylic acid]	0.167 µM
Cc1ccc([C@@H]2[C@@H]3CCc4cc(C(=O)O)ccc4C3=NN2c2ccc(C#N)c(Cl)c2)o1 [Example 41, (3S,3aS)-2-(3-chloro-4-cyanophenyl)-3-(5-methyl-2-furyl)-3,3a,4,5-tetrahydro-2H-benzo[g]indazole-7-carboxylic acid]	> 1 µM
N#Cc1ccc(N2N=C3c4ccc(C(=O)O)cc4OCC3C2C2CCCC2)cc1 (racemic) [Example 70, 2-(4-cyanophenyl)-3-cyclopentyl-2,3,3a,4-tetrahydrochromeno[4,3-c]pyrazole-7-carboxylic acid]	0.906 µM
N#Cc1ccc(N2N=C3c4ccc(C(=O)O)cc4OCC3C2C2=CCCC2)cc1Cl (racemic) [Example 78, (±)-(3RS,3aRS)-2-(3-chloro-4-cyanophenyl)-3-cyclopentenyl-2,3,3a,4-tetrahydrochromeno[4,3-c]pyrazole-7-carboxylic acid]	0.07 µM
Cc1cc(N2N=C3c4ccc(C(=O)O)cc4CCC3C2C2=CCCC2)ccc1C#N (racemic) [Example 51, 2-(4-cyano-3-methylphenyl)-3-cyclopentenyl-3,3a,4,5-tetrahydro-2H-benzo[g]indazole-7-carboxylic acid]	0.007 µM
N#Cc1ccc(N2N=C3c4ccc(C(=O)O)cc4CC[C@@H]3[C@@H]2c2ccc(F)cc2)cc1Cl [Example 3, (3R,3aR)-2-(3-chloro-4-cyanophenyl)-3-(4-fluorophenyl)-3,3a,4,5-tetrahydro-2H-benzo[g]indazole-7-carboxylic acid]	0.0407 µM
Cc1cc(N2N=C3c4ccc(C(=O)O)cc4CCC3C2C2CCCC2)ccc1C#N (racemic) [Example 21, 2-(4-cyano-3-methylphenyl)-3-cyclopentyl-3,3a,4,5-tetrahydro-2H-benzo[g]indazole-7-carboxylic acid]	0.004 µM
N#Cc1ccc(N2N=C3c4ccc(C(=O)O)cc4CCC3C2C2CCCC2)cc1 (racemic) [Example 18, 2-(4-cyanophenyl)-3-cyclopentyl-3,3a,4,5-tetrahydro-2H-benzo[g]indazole-7-carboxylic acid]	0.089 µM
N#Cc1ccc(N2N=C3c4ccc(C(=O)O)cc4OCC3C2C2CCCC2)cc1Cl (racemic) [Example 64, 2-(3-chloro-4-cyanophenyl)-3-cyclopentyl-2,3,3a,4-tetrahydrochromeno[4,3-c]pyrazole-7-carboxylic acid]	0.065 µM
N#Cc1ccc(N2N=C3c4ccc(C(=O)NCCOCC(=O)O)cc4CC[C@@H]3[C@@H]2c2ccc(F)cc2)cc1Cl (racemic) [Example 109, (±)-2-(2-((3RS,3aRS)-2-(3-chloro-4-cyanophenyl)-3-(4-fluorophenyl)-3,3a,4,5-tetrahydro-2H-benzo[g]indazole-7-carboxamido)ethoxy)acetic acid]	> 1 µM
N#Cc1ccc(N2N=C3c4ccc(C(=O)O)cc4CC[C@H]3[C@H]2c2ccc(F)cc2)cc1 [Example 12, (3S,3aS)-2-(4-cyanophenyl)-3-(4-fluorophenyl)-3,3a,4,5-tetrahydro-2H-benzo[g]indazole-7-carboxylic acid]	> 10 µM
N#Cc1ccc(N2N=C3c4ccc(C(=O)O)cc4CC[C@@H]3[C@@H]2c2ccc(F)cc2)cc1 [Example 11, (3R,3aR)-2-(4-cyanophenyl)-3-(4-fluorophenyl)-3,3a,4,5-tetrahydro-2H-benzo[g]indazole-7-carboxylic acid]	0.205 µM

More lines, now with the values ahead:

IC50	Structure (SMILES)
6.92 µM	N#Cc1ccc(N2N=C3c4ccc(CC(=O)O)cc4OCC3C2c2ccc(F)cc2)cc1 (racemic) [Example 79, (±)-(3RS,3aRS)-[2-(4-cyanophenyl)-3-(4-fluorophenyl)-2,3,3a,4-tetrahydrochromeno[4,3-c]pyrazol-7-yl]acetic acid]
> 1 µM	N#Cc1ccc(N2N=C3c4ccc(C(=O)O)cc4OC[C@H]3[C@H]2c2ccc(F)cc2)cc1 [Example 60, (3S,3aS)-2-(4-cyanophenyl)-3-(4-fluorophenyl)-2,3,3a,4-tetrahydrochromeno[4,3-c]pyrazole-7-carboxylic acid]
> 1 µM	N#Cc1ccc(N2N=C3c4ccc(C(=O)O)cc4OC[C@@H]3[C@@H]2c2ccc(F)cc2)cc1 [Example 59, (3R,3aR)-2-(4-cyanophenyl)-3-(4-fluorophenyl)-2,3,3a,4-tetrahydrochromeno[4,3-c]pyrazole-7-carboxylic acid]
0.446 µM	COC(=O)c1ccc2c(c1)CCC1C2=NN(c2ccc(C#N)c(OCc3ccccc3)c2)C1C1CCCC1 (racemic) [Example 30, methyl 2-(3-(benzyloxy)-4-cyanophenyl)-3-cyclopentyl-3,3a,4,5-tetrahydro-2H-benzo[g]indazole-7-carboxylate]
0.021 µM	N#Cc1ccc(N2N=C3c4ccc(C(=O)O)cc4CCC3C2c2ccco2)cc1Cl (racemic) [Example 43, 2-(3-chloro-4-cyanophenyl)-3-(2-furyl)-3,3a,4,5-tetrahydro-2H-benzo[g] indazole-7-carboxylic acid]
> 1 µM	N#Cc1ccc(N2N=C3c4ccc(C(=O)NCC(=O)NCC(=O)O)cc4CC[C@@H]3[C@@H]2c2ccc(F)cc2)cc1Cl (racemic) [Example 110, (±)-2-(2-((3RS,3aRS)-2-(3-chloro-4-cyanophenyl)-3-(4-fluorophenyl)-3,3a,4,5-tetrahydro-2H-benzo[g]indazole-7-carboxamido)acetamido)acetic acid]
> 1 µM	N#Cc1ccc(N2N=C3c4ccc(C(=O)O)cc4CC[C@H]3[C@H]2c2ccco2)cc1Cl [Example 45, (3S,3aS)-2-(3-chloro-4-cyanophenyl)-3-(2-furyl)-3,3a,4,5-tetrahydro-2H-benzo[g]indazole-7-carboxylic acid]
4.98 µM	N#Cc1ccc(N2N=C3c4ccc(C(=O)O)cc4CCC3C2c2ccno2)cc1 (racemic) [Example 52, 2-(4-cyanophenyl)-3-isoxazol-5-yl-3,3a,4,5-tetrahydro-2H-benzo[g]indazole-7-carboxylic acid]
